Laboratory results reported in EP4467640A1, “MICROORGANISM AND METHOD FOR THE IMPROVED PRODUCTION OF CYSTEINE AND/OR DERIVATIVES THEREOF” (Metabolic Explorer, priority 2023, dated 2024).

Experiments:
[1] = target: O-phosphoserine sulfhydrylase from Mycolicibacterium smegmatis (OPSSmsm), SEQ ID NO: 104 (Mycolicibacterium smegmatis, UniProt A0R1X2); test: O-phosphoserine sulfhydrylase (OPSS) activity, cysteine formation (Gaitonde method), kinetic parameters of purified enzyme; assay type: biochemical, Mycolicibacterium smegmatis (strain ATCC 700084 / mc(2)155)
[2] = target: O-phosphoserine sulfhydrylase from Geobacter sulfurreducens (OPSSgsu), SEQ ID NO: 2 (Geobacter sulfurreducens, UniProt Q747V7); test: as above; assay type: biochemical; conditions: pH 7.5, 30°C; read-out: Km (Na2S)
[3] = target: O-phosphoserine sulfhydrylase from Rhodothermus marinus (OPSSrma), SEQ ID NO: 4 (Rhodothermus marinus, UniProt D0MJA5); test: as above; assay type: biochemical, Rhodothermus marinus (strain ATCC 43812 / DSM 4252 / R-10); conditions: pH 7.5, 30°C; read-out: Km (Na2S)
[4] = tested on: O-phosphoserine sulfhydrylase from Dethiobacter alkaliphilus (OPSSdal), SEQ ID NO: 106; test: as above; assay type: biochemical, Dethiobacter alkaliphilus AHT 1
Protocol: This reaction solution, except the enzymes, were incubated at 30°C for 10 min. After then, 0.5 to 1 µg of purified OPSS was added to the reaction solution, incubated at 30°C. 100 µl of the enzyme reaction solutions were taken after 5 min, 10 min, 15 min and mixed with 50 µl cold 1.5 M TCA to stop the enzymatic reaction. The cysteine concentrations in the enzyme reaction solution were quantified by measuring absorbance at OD560 nm according to Gaitonde method (Gaitonde,M.K. (1967), Biochem. J. 104, 627-633).
Kinetic parameters were determined using Sigmaplot.

[5] = substrate: N[C@@H](COP(=O)(O)O)C(=O)O; test: purified protein, by the assay type; conditions: fixed Na2S 50 mM, O-phosphoserine 0.5-100 mM, 100 mM Hepes pH 7.5, 30°C

Sequence of O-phosphoserine sulfhydrylase from Mycolicibacterium smegmatis (OPSSmsm), SEQ ID NO: 104 (A0R1X2 1-323): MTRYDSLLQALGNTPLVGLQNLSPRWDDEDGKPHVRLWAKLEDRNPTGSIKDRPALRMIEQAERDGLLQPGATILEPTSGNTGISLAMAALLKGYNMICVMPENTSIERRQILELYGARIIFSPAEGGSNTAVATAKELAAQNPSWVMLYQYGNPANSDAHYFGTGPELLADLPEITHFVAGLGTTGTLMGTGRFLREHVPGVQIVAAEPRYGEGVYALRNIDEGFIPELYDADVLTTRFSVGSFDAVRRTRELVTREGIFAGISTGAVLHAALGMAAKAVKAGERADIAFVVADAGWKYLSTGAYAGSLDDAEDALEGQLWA

Molecule: Na2S
- Km ([1]; pH 7.5, 30°C, read-out: Km (Na2S)): 1.4 mM
- Km [2]: 16 mM
- Km [3]: 13 mM

Molecule: N[C@@H](COP(=O)(O)O)C(=O)O [OPS, O-phosphoserine]
- inhibition at 20000 µM ([1]; read-out: activity lost (inhibition by O-Phosphoserine)): 50%
- kcat ([4]; calculated from the O-phosphoserine saturation curves, Na2S 50 mM, pH 7.5, 30°C): 19 s⁻¹
- Km ([4]; read-out: Km (OPS), fixed Na2S 50 mM, O-phosphoserine 0.5-100 mM, 100 mM Hepes pH 7.5, 30°C): 17 mM

B1: O-phosphoserine sulfhydrylase from Rhodothermus marinus (OPSSrma), SEQ ID NO: 4 (Rhodothermus marinus DSM 4252) (protein)
chain: MFAETLQTTTNTRPLSGTELIRAIGHTPLIRLRRVARHLPETVAVYVKAEHLNPGGSVKDRPALRMVLEGLRSGALREGRALIDATSGNTGIAYAMLGAALGFPVTLAMPANASPERKRILKAYGAELILTDPMEGTDGAQRYVRELVQQEPDRYFYPDQYNNDANWRAHYEGTGIEILEQTGGRVTHFVAGLGTTGTFVGVSRRLKAHNPAIRCYALQPDSPLHGLEGLKHLETAIVPGIYDPSLVDEHLSCSTEEAFEMTRRLAREEGLFVGPSSGANVAAALHIAEQLDRGVVVTVLCDTGARYLSEPFWEETP
- Km ([5]; other: OPSSrma): 6 mM
- kcat ([5]; other: OPSSrma): 47 s⁻¹

B2: O-phosphoserine sulfhydrylase from Geobacter sulfurreducens (OPSSgsu), SEQ ID NO: 2 (Geobacter sulfurreducens PCA) (protein)
chain: MEHPPFSLAGSIGATPLVELRHLNPNPRVRILAKLEGNNVGGSVKDRPALYMLAKAEESGELVPEKTILEPTSGNTGIALAMLGTVKGYRVKLVMPACVSLERRAVLEAYGAELVLSPHDEATDGAIRLAHRILEEEPDRYYMPNQYANPNNPLAHYETTAPEIFRDTGGAVDFFVAGMGTGGTLMGTSRYFREKKPSVRIVGVEPRLGHKVQGLKNMQEAIVPPIYHPEALDLKLTVHDEPAFDTARELAAREGLFVGMSSGAAVAGAVQVARDAPAGSTIVVLLPDRGDRYLSTVLFRSVCGKCPP
- Km ([5]; other: OPSSgsu): 16 mM
- kcat ([5]; other: OPSSgsu): 58 s⁻¹
